In brackets after ≈: the same amount, converted by molar mass. Where two headings read alike, the source gives them in different places.
Experiments:
[1] = cited from earlier work
[2] = Solubility study of clozapine at various pH and solvent; type: physicochemical
[3] = pH 4.0 to 4.5 of Acetate buffer

Row | Solubility ([2]; 0.1N Hydrochloric acid) [mg/mL] | Solubility ([2]; Purified Water) [mg/mL] | Solubility [2, 3] [mg/mL] | Solubility ([2]; pH 6.8 of Phosphate buffer) [mg/mL] | Solubility ([2]; phosphate buffer, pH 6.8, aqueous buffer, thermodynamic from solid, pH 6.8 of Phosphate buffer, read-out: Solubility) [mg/mL] | Solubility ([2]; purified water, water, thermodynamic from solid, Purified Water, read-out: Solubility) [mg/mL] | Compound | solubility in water [1]
1 | – | – | – | – | – | – | CN1CCN(C2=Nc3cc(Cl)ccc3Nc3ccccc32)CC1 [Clozapine, 8-chloro-11-(4-methyl-1-piperazinyl)-5H-dibenzo [b,e][1,4] diazepine] | very slightly soluble in water
2 | 28.727 (≈ 87900 µM) | 0.031 (≈ 94.9 µM) | 4.773 (≈ 14600 µM) | 0.121 (≈ 370 µM) | – | – | CN1CCN(C2=Nc3cc(Cl)ccc3Nc3ccccc32)CC1 [Micronized, Clozapine] | –
3 | 0.418 (≈ 1280 µM) | – | 0.73 (≈ 2230 µM) | – | 0.1 (≈ 306 µM) | 0.04 (≈ 122 µM) | CN1CCN(C2=Nc3cc(Cl)ccc3Nc3ccccc32)CC1 [Un-micronized, Clozapine] | –

— patent publication US11918590B2 (Intas Pharmaceuticals Ltd., priority 2021, dated 2024)
